ChEMBL document CHEMBL1142084, “In vitro activities of tigecycline and eight other antimicrobials against different Nocardia species identified by molecular methods” (2007)
Values after ≈ are worked out from the molar mass of the structure shown.

How the values were obtained:
Type in all cases: functional
Nocardia veterana = test: Antimicrobial activity against Nocardia veterana after 72 hrs by microdilution method
Nocardia nova = test: Antimicrobial activity against Nocardia nova after 72 hrs by microdilution method
[1] = system: Nocardia otitidiscaviarum; test: Antimicrobial activity against Nocardia otitidiscaviarum after 72 hrs by microdilution method
Nocardia cyriacigeorgica = test: Antimicrobial activity against Nocardia cyriacigeorgica after 72 hrs by microdilution method
Nocardia beijingensis = test: Antimicrobial activity against Nocardia beijingensis after 72 hrs by microdilution method
Nocardia transvalensis = test: Antimicrobial activity against Nocardia transvalensis after 72 hrs by microdilution method
Nocardia sp. = test: Antimicrobial activity against Nocardia sp. after 72 hrs by microdilution method
Nocardia carnea = test: Antimicrobial activity against Nocardia carnea after 72 hrs by microdilution method
Nocardia brasiliensis = test: Antimicrobial activity against Nocardia brasiliensis after 72 hrs by microdilution method
Nocardia abscessus = test: Antimicrobial activity against Nocardia abscessus after 72 hrs by microdilution method
Nocardia farcinica = test: Antimicrobial activity against Nocardia farcinica after 72 hrs by microdilution method

Structure (SMILES) | MIC (Nocardia veterana) [µg/mL] | MIC (Nocardia nova) [µg/mL] | MIC [1] [µg/mL] | MIC (Nocardia cyriacigeorgica) [µg/mL] | MIC (Nocardia beijingensis) [µg/mL] | MIC (Nocardia transvalensis) [µg/mL] | MIC (Nocardia sp.) [µg/mL] | MIC (Nocardia carnea) [µg/mL] | MIC (Nocardia brasiliensis) [µg/mL] | MIC (Nocardia abscessus) [µg/mL] | MIC (Nocardia farcinica) [µg/mL]
NCC[C@H](O)C(=O)N[C@@H]1C[C@H](N)[C@@H](O[C@H]2O[C@H](CN)[C@@H](O)[C@H](O)[C@H]2O)[C@H](O)[C@H]1O[C@H]1O[C@H](CO)[C@@H](O)[C@H](N)[C@H]1O [AMIKACIN] | 0.25 (≈ 0.427 µM) | 0.12 (≈ 0.205 µM) | 1 (≈ 1.71 µM) | ≤ 0.06 | ≤ 0.06 | 32 (≈ 54.6 µM) | 0.25 (≈ 0.427 µM) | 0.5 (≈ 0.854 µM) | 1 (≈ 1.71 µM) | ≤ 0.06 | 1 (≈ 1.71 µM)
C[C@@H](O)[C@H]1C(=O)N2C(C(=O)O)=C(SCCNC=N)C[C@H]12 [IMIPENEM ANHYDROUS] | ≤ 0.06 | 0.12 (≈ 0.401 µM) | 0.5 (≈ 1.67 µM) | ≤ 0.06 | 0.5 (≈ 1.67 µM) | > 64 | ≤ 0.06 | 0.5 (≈ 1.67 µM) | 1 (≈ 3.34 µM) | 0.5 (≈ 1.67 µM) | 1 (≈ 3.34 µM)
CC(=O)NC[C@H]1CN(c2ccc(N3CCOCC3)c(F)c2)C(=O)O1 [LINEZOLID] | 0.25 (≈ 0.741 µM) | 0.12 (≈ 0.356 µM) | ≤ 0.06 | 0.12 (≈ 0.356 µM) | ≤ 0.06 | 1 (≈ 2.96 µM) | ≤ 0.06 | ≤ 0.06 | 1 (≈ 2.96 µM) | ≤ 0.06 | 0.12 (≈ 0.356 µM)
C[C@@H](O)[C@H]1C(=O)N2C(C(=O)O)=C(S[C@@H]3CN[C@H](C(=O)N(C)C)C3)[C@H](C)[C@H]12 [MEROPENEM] | 0.12 (≈ 0.313 µM) | 0.5 (≈ 1.3 µM) | 1 (≈ 2.61 µM) | ≤ 0.06 | 2 (≈ 5.22 µM) | > 64 | ≤ 0.06 | 1 (≈ 2.61 µM) | 1 (≈ 2.61 µM) | 0.25 (≈ 0.652 µM) | 2 (≈ 5.22 µM)
CN(C)c1cc(NC(=O)CNC(C)(C)C)c(O)c2c1C[C@H]1C[C@H]3[C@H](N(C)C)C(O)=C(C(N)=O)C(=O)[C@@]3(O)C(O)=C1C2=O [TIGECYCLINE] | 0.12 (≈ 0.205 µM) | 0.5 (≈ 0.854 µM) | ≤ 0.06 | ≤ 0.06 | 0.25 (≈ 0.427 µM) | 2 (≈ 3.41 µM) | ≤ 0.06 | ≤ 0.06 | ≤ 0.06 | ≤ 0.06 | 1 (≈ 1.71 µM)

Further molecules by falling MIC (Nocardia veterana), results first:

MIC (Nocardia veterana) [µg/mL] | MIC (Nocardia nova) [µg/mL] | MIC [1] [µg/mL] | MIC (Nocardia cyriacigeorgica) [µg/mL] | MIC (Nocardia beijingensis) [µg/mL] | MIC (Nocardia transvalensis) [µg/mL] | MIC (Nocardia sp.) [µg/mL] | MIC (Nocardia carnea) [µg/mL] | MIC (Nocardia brasiliensis) [µg/mL] | MIC (Nocardia abscessus) [µg/mL] | MIC (Nocardia farcinica) [µg/mL] | Structure (SMILES)
1 (≈ 2.19 µM) | 1 (≈ 2.19 µM) | 0.5 (≈ 1.09 µM) | ≤ 0.06 | ≤ 0.06 | 1 (≈ 2.19 µM) | 0.25 (≈ 0.546 µM) | 0.5 (≈ 1.09 µM) | 1 (≈ 2.19 µM) | ≤ 0.06 | 1 (≈ 2.19 µM) | CN(C)c1ccc(O)c2c1C[C@H]1C[C@H]3[C@H](N(C)C)C(O)=C(C(N)=O)C(=O)[C@@]3(O)C(O)=C1C2=O [MINOCYCLINE]
0.5 (≈ 1.25 µM) | 2 (≈ 4.98 µM) | ≤ 0.06 | ≤ 0.06 | ≤ 0.06 | 0.12 (≈ 0.299 µM) | ≤ 0.06 | ≤ 0.06 | ≤ 0.06 | 1 (≈ 2.49 µM) | ≤ 0.06 | COc1c(N2C[C@@H]3CCCN[C@@H]3C2)c(F)cc2c(=O)c(C(=O)O)cn(C3CC3)c12 [MOXIFLOXACIN]
0.25 (≈ 0.526 µM) | 0.5 (≈ 1.05 µM) | 1 (≈ 2.1 µM) | ≤ 0.06 | 2 (≈ 4.21 µM) | > 64 | 0.25 (≈ 0.526 µM) | 2 (≈ 4.21 µM) | 2 (≈ 4.21 µM) | 0.5 (≈ 1.05 µM) | 4 (≈ 8.41 µM) | C[C@@H](O)[C@H]1C(=O)N2C(C(=O)O)=C(S[C@@H]3CN[C@H](C(=O)Nc4cccc(C(=O)O)c4)C3)[C@H](C)[C@H]12 [ERTAPENEM]
